Tests used:
[1] = test system: rat model of persistent inflammatory pain; assay: Persistent inflammatory pain model (intraplantar FCA): paw withdrawal to mechanical pressure and cold (10° C.), general observations; type: in vivo; conditions: for behavioural changes in the rats (general observations): rat, in vivo; for rats with noticeable flaccidity: 1-6h post-dose; for rats more alert and more vocal than fellow cage-mates: 1-6 h post-dose
Protocol: The efficacy of Compounds 1, 2, 3 and 4 was investigated using rat models of neuropathic and/or persistent inflammatory pain.
Subjects comprised male, Wistar Hanover rats, 6 animals per group (225±2 g for Compound 1 studies and Compound 2 studies; 214±1 g for Compound 3 studies; 236±1 g for Compound 4 studies).
Vehicle (12% Captisol®; 0.5% w/v HPMC and 0.1% w/v Tween-80; 5 ml/kg via the intraperitoneal route) was prepared using autoclaved deionized water not more than one week prior to use.
The details of the studies performed are outlined in Table 1.
The control for the neuropathic pain model was lamotrigine, administered at 30 mg/kg via oral delivery. The control for the inflammatory pain model was diclofenac, administered at 30 mg/kg via oral delivery. Statistical analysis was performed using one-way ANOVA, and comparisons were performed with time-matched vehicle group using Tukey's HSD test wherein * p<0.05, ** p<0.01, *** p<0.001.
Treatment groups were randomised and blinded. Groups of 6 rats were used.
Mechanical hyperalgesia was examined in a model of persistent inflammatory pain. The hyperalgesia was induced by an intraplantar injection (25 μl) of Freund's Complete Adjuvant (FCA) into the left hind paw.
To assess the effect of the test compound, paw withdrawal thresholds or latencies were measured on both the ipsilateral (FCA-injected) and contralateral (non-injected) paws, prior to (naïve) and 24 hours following FCA injection (predose), and then at 1, 3, 6 and 24 hours after drug or vehicle administration.
Mechanical hyperalgesia was examined in a model of neuropathic pain by measuring paw withdrawal thresholds (PWT) to increasing mechanical force applied to the dorsal surface of the rat paw using an Analgesymeter (Ugo-Basile, Milan) equipped with a wedge-shaped probe (area 1.75 mm^2). Cut-off was set at 250 g and the end-point was taken as withdrawal of the hind paw. Both ipsilateral and contralateral paw withdrawal readings were taken.
Cold sensitivity was assessed using a commercially available cold-plate (Ugo Basile, Milan). The cold plate was allowed to stabilize for 5 minutes at the set temperature prior to testing. Paw withdrawal latencies (PWL) were determined with the cold-plate set at 10° C. The animals were lightly restrained and each hind paw in turn placed onto the surface of the cold-plate. The end point was taken as the withdrawal of the paw and recorded as the withdrawal latency for the ipsilateral and the contralateral paw. A maximum cut-off of 30 seconds was used for each paw.
In addition to behavioural pain readings, each rat was observed throughout the study for changes in general behaviour.
Data were expressed as withdrawal threshold (g) or withdrawal latencies (s) and percentage reversals calculated according to the following formula: […]
Statistical analysis was carried out on withdrawal threshold readings using ANOVA with repeated measures followed by Tukey's HSD test. The level for statistical significance was set as p<0.05.

Human Kv3.4 channels = biological target: T1, Human Kv3.4 channels (Homo sapiens, UniProt Q03721); assay: Kv3.4 Assay 2 (QPatch, HEK293); type: cell-based; design: dose or concentration left out as unconfirmed; conditions: for reduction in peak Kv3.4 current: peak currents did not recover to baseline on washout
T1 construct: expressed in transfected cells
T1 sequence (Q03721 1-635): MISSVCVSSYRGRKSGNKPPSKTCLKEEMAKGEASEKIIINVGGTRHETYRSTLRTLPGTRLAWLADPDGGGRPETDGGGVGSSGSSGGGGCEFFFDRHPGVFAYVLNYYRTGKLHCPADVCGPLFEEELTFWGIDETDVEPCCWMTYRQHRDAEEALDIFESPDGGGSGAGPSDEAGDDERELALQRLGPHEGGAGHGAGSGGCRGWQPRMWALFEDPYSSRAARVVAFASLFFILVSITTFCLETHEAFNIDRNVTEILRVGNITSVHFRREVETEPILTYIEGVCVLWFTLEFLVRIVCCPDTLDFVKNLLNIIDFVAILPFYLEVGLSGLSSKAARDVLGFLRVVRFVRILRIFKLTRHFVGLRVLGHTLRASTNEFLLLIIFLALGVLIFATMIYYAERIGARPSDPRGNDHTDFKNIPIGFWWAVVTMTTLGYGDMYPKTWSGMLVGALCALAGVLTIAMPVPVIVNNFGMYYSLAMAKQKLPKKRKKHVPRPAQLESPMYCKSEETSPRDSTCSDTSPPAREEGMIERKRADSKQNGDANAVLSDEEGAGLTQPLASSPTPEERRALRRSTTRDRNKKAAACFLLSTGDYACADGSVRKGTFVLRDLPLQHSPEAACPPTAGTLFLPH
Protocol: Human Kv3.4 channels were stably expressed in a HEK293 cell line. Cells were used within 1-4 hours of cell preparation and internal and external physiological solutions were freshly prepared prior to the assay. Electrophysiological recordings were made using an automated patch clamp platform (QPatch, Sophion Biosciences). The extracellular solution contained 145 mM NaCl, 4 mM KCl, 2 mM CaCl2, 1 mM MgCl2, 10 mM HEPES and 10 mM glucose; the pH was adjusted to 7.4 with NaOH, and the osmolarity measured as 313 mOsm/L. A low potassium intracellular solution was used which contained 135.6 mM CsCl, 5.37 mM CaCl2, 1.75 mM MgCl2, 10 mM EGTA, 15.6 mM KOH, 4 mM Na2ATP and 10 mM HEPES; the pH was adjusted to 7.2 with CsOH, and the osmolarity measured as 303 mOsm/L.
The voltage dependence of inactivation of the homomeric hKv3.4 channels was tested using a protocol that consisted of a series of two square voltage pulses. The pulse one (P1=pre-pulse) was 1000 ms long and was immediately followed by a second pulse (P2=test pulse) which was 500 ms long. Pulse one varied between the holding potential of −60 mV to +40 mV and pulse two stepped from a holding potential of −60 to +40 mV before returning to the holding potential of −60 mV.
Steady-state voltage-activation and -inactivation curves were fitted with single Boltzmann function in which G/Gmax was obtained from normalized current amplitude and the V50 represent the half-activation or inactivation voltage.
The time constants of the inactivation phase of the hKv3.4 currents were derived from a mono (τ) or a double (τ1 and τ2) standard exponential fit to peak trace pulse from −80 mV to +60 mV.
The time-course of effect of the compounds against the hKv3.4 potassium channel was measured with repetitive voltage pulses from a holding potential of −60 mV, with pulses of 500 ms duration every 5 s to +40 mV.
One concentration (10 uM) of the test compounds was assessed during the activation, inactivation and peak pulse protocols. The protocol was applied with addition of physiological solution (control period), followed by 10 uM of the testing compound and a 10 mM of the standard blocker TEA.
Data were normalized using the baseline current control values as top of the curve (maximum current; 1.0) and the zero potassium current as the bottom of the curve (minimum current; 0.0).
Series resistance and quality of seals were monitored during the experiments. Analysis was performed using the Sophion QPatch Assay Software (version 5.2).
Stock solutions (10 mM) of the standard blockers TEA was prepared in fresh physiological solution prior to testing on the e-phys automated platform. The test compounds were prepared in 10 mM DMSO stock and then diluted 1 in 1000 in physiological solution.

[2] = 30 mg/kg i.p., time not stated (peak reversal at 1-3 h post-dose)
[3] = 10 mg/kg i.p., 3 hours post-dose
[4] = 30 mg/kg i.p., 3 hours post-dose
[5] = 60 mg/kg i.p., 1 hour post-dose
[6] = 60 mg/kg i.p., 3 hours post-dose

Compound | activity at 6 hours post-dose [1] | changes in contralateral paw withdrawals/latencies ([1]; all doses) | behavioural changes in the rats (general observations) [1] | potentiation of the observed Kv3.4 current (Human Kv3.4 channels) | shift in the voltage-dependence of activation of the Kv3.4 currents (Human Kv3.4 channels) | reduction in peak Kv3.4 current (Human Kv3.4 channels) [%] | reversal of mechanical sensitivity [1, 3] [%] | reversal of cold sensitivity [1, 4] [%] | reversal of cold sensitivity [1, 5] [%] | reversal of cold sensitivity [1, 6] [%] | reversal of mechanical sensitivity [1, 6] [%] | other results
CC[C@H]1NC(=O)N(c2ccc(Oc3ccc(C)c4c3C3(CC3)CO4)nc2)C1=O [Compound 4, (5R)-5-ethyl-3-[6-(7-methylspiro[2H-benzofuran-3,1′-cyclopropane]-4-yl)oxy-3-pyridyl]imidazolidine-2,4-dione] | significant activity still evident | no significant changes | no behavioural changes noted | did not potentiate | did not produce any notable shift | 50.0±4 |  |  |  |  |  | reversal of cold sensitivity [1, 2]: 55%; reversal of mechanical sensitivity [1, 2]: 50%
CC[C@@]1(C)NC(=O)N(c2cnc(Oc3ccc(C)c(OC(F)(F)F)c3)nc2)C1=O [Compound 2, (5R)-5-ethyl-5-methyl-3-[2-({4-methyl-3-[(trifluoromethyl)oxy]phenyl}oxy)-5-pyrimidinyl]-2,4-imidazolidinedione] |  | No changes | no apparent behavioural changes | did not potentiate | did not produce any notable shift | 45.4±4 | 46 | 58 | 96 | 81 | 67 | 
Cc1ccc(Oc2ncc(N3C(=O)NC(C)(C)C3=O)cn2)c2c1OCC21CC1 [Compound 1, 5,5-dimethyl-3-[2-(7-methylspiro[2H-benzofuran-3,1′-cyclopropane]-4-yl)oxypyrimidin-5-yl]imidazolidine-2,4-dione] |  |  |  | did not potentiate | did not produce any notable shift | 40±5 | 64 | 65 | 92 |  |  | reversal of cold sensitivity [1, 3]: 45%; rats with noticeable flaccidity ([1]; 30 mg/kg i.p.): 2/6; reversal of mechanical sensitivity ([1]; 30 mg/kg i.p., 1 hour post-dose): 74%; animals showing the contralateral paw effect ([1]; 60 mg/kg i.p.): 3/6; changes in contralateral paw withdrawals/latencies ([1]; 60 mg/kg i.p.): Pronounced increases; rats with noticeable flaccidity ([1]; 60 mg/kg i.p.): 4/6; reversal of mechanical sensitivity [1, 5]: 92%; reversal of cold sensitivity ([1]; 60 mg/kg i.p., 6h post-dose): 45%; reversal of mechanical sensitivity ([1]; 60 mg/kg i.p., 6h post-dose): 45%
Cc1ccc(Oc2ccc(-n3c(C)n[nH]c3=O)cn2)c2c1OCC21CC1 [Compound 3, 5-methyl-4-{6-[(7-methylspiro[1-benzofuran-3,1′-cyclopropan]-4-yl)oxy]pyridin-3-yl}-2,4-dihydro-3H-1,2,4-triazol-3-one] | activity still evident | no significant changes |  | did not potentiate | did not produce any notable shift | 36±3 |  |  |  | 51 | 67 | rats more alert and more vocal than fellow cage-mates ([1]; 30 mg/kg group): 4/6; rats more alert and more vocal than fellow cage-mates ([1]; 60 mg/kg group): 1/6; doses producing a reversal of mechanical or cold sensitivity ([1]; 10, 30 and 60 mg/kg i.p. tested): Only the top dose; reversal at 1 hour post-dose ([1]; 1 hour post-dose): little reversal evident

Reference: patent publication US11944623B2, “Modulators of Kv3 channels to treat pain” (Autifony Therapeutics Limited, priority 2015, dated 2024)
